This passage reports MIC results from DBAASP.

Test systems include Candida albicans C627; Cryptococcus neoformans; Klebsiella pneumoniae; Escherichia coli; Candida albicans 1; Candida glabrata; Shigella dysenteriae; Bacillus subtilis; Klebsiella pneumoniae 2; Acinetobacter baumannii; Staphylococcus aureus 4; Pseudomonas aeruginosa 2; Arcyria cinerea; Candida glabrata 1; Staphylococcus aureus 1; Klebsiella pneumoniae 1; Proteus mirabilis; Pseudomonas aeruginosa 1; Candida albicans 5; Klebsiella pneumoniae 5; Klebsiella oxytoca; Candida albicans; Proteus vulgaris; Serratia marcescens; Enterococcus faecalis; Nocardia asteroides; Enterococcus faecium; Bacillus cereus; Escherichia coli HB101.

Experiment in all cases: ≥ marks a high value that may be exact or a test limit, other limits are often not marked, values filed in µg/mL are converted to µM
The subject of assay [1] is Pseudomonas aeruginosa H103.
Assay [2] concerns Pseudomonas aeruginosa LES400.
The subject of assay [3] is Staphylococcus aureus C623.
Assay [4] relates to Staphylococcus aureus ATCC 25923.
The test system of assay [5] is Enterococcus faecium mic80.
The test system of assay [6] is Pseudomonas aeruginosa 213.
The subject of assay [7] is Escherichia coli ESBL 63103.
Assay [8] relates to Stenotrophomonas maltophilia 2.
The test system of assay [9] is Staphylococcus epidermidis.
Assay [10] has as its system Stenotrophomonas maltophilia.
In assay [11] the test system is Salmonella enterica subsp. enterica serovar Paratyphi A.
In assay [12] the test system is Pseudomonas aeruginosa ATCC 27853.
The test system of assay [13] is Leishmania major MHOM/IL/67/JERICHO-II.
The test system of assay [14] is Staphylococcus aureus Cowan 1.
Assay [15] concerns Candida albicans 08030102.
Assay [16] concerns Candida albicans 08030401.
For assay [17], the system named is Staphylococcus aureus ATCC 2592.
The test system of assay [18] is Escherichia coli ATCC 25922.
Assay [19] relates to Candida albicans ATCC 2002.
Assay [20] deals with Candida albicans 08032815.
Assay [21] concerns Candida albicans 08022821.

By MIC is commonly meant the least concentration at which growth counts as inhibited. The low end stands for inhibition by little substance, the high end for a need for much substance.

≈ marks a conversion by molar mass, not a printed value.

Regarding `CC(C)C[C@H](NC(=O)[C@H](CC(C)C)NC(=O)[C@H](CCCN=C(N)N)NC(=O)[C@H](Cc1c[nH]c2ccccc12)NC(=O)[C@H](Cc1c[nH]c2ccccc12)NC(=O)[C@H](CCCN=C(N)N)NC(=O)[C@H](CCCCN)NC(=O)[C@H](Cc1c[nH]c2ccccc12)NC(=O)[C@@H](N)CCCN=C(N)N)C(=O)O` [RWKRWWRLL], the MIC in assay [1] came out at 22.9 µM (≈ 32 µg/mL); in assay [2] it was 22.9 µM (≈ 32 µg/mL); in [3] it was 5.72 µM (≈ 8 µg/mL); in [4], 11.4 µM (≈ 16 µg/mL); with Candida albicans C627, 5.72 µM (≈ 8 µg/mL); in assay [5], 5.72 µM (≈ 8 µg/mL). Besides, the MIC in [6] was not below 45.7 µM; in [7] it was 11.4 µM (≈ 16 µg/mL).
Take `CC[C@H](C)[C@H](NC(=O)[C@H](CO)NC(=O)[C@H](CCCCN)NC(=O)[C@@H](NC(=O)[C@H](CCCCN)NC(=O)[C@H](CCCCN)NC(=O)[C@H](CCCCN)NC(=O)[C@@H](NC(=O)[C@H](CCCCN)NC(=O)[C@@H]1CSSC[C@H](NC(=O)[C@H](CCCCN)NC(=O)[C@@H](N)CCCCN)C(=O)N[C@@H](CCCCN)C(=O)N[C@@H](Cc2ccccc2)C(=O)N[C@@H](Cc2ccccc2)C(=O)N1)C(C)C)[C@@H](C)CC)C(=O)NCC(=O)N[C@@H](Cc1ccccc1)C(=O)N[C@@H](CCC(N)=O)C(=O)N[C@H](C(=O)N1CCC[C@H]1C(=O)N[C@H](C(=O)N[C@H](C(=O)N[C@@H](CO)C(=O)N[C@H](C(=O)N1CCC[C@H]1C(=O)N[C@@H](Cc1ccccc1)C(=O)N[C@@H](CCCCN)C(=O)O)[C@@H](C)CC)C(C)C)[C@@H](C)CC)[C@@H](C)CC` [KKCKFFCKVKKKIKSIGFQIPIVSIPFK]: the minimal inhibitory concentration (MIC) against Cryptococcus neoformans is not below 60.9 µM; with Klebsiella pneumoniae, 22.8 µM (≈ 75 µg/mL); against Escherichia coli, 4.04 µM (≈ 13.3 µg/mL); against Candida albicans 1, 2.86 µM (≈ 9.37 µg/mL); in [8], 2.86 µM (≈ 9.37 µg/mL); against Candida glabrata, not below 60.9 µM. In addition, the MIC in assay [4] is more than 60.9 µM; in the assay with Shigella dysenteriae it was 1.43 µM (≈ 4.69 µg/mL); in assay [9] it was 2.86 µM (≈ 9.37 µg/mL); in assay [10], 11.4 µM (≈ 37.5 µg/mL); against Bacillus subtilis it was 2.86 µM (≈ 9.37 µg/mL); in the assay on Klebsiella pneumoniae 2, 5.71 µM (≈ 18.7 µg/mL). Moreover, the minimal inhibitory concentration (MIC) is 11.4 µM (≈ 37.5 µg/mL) in assay [11]; not below 60.9 µM against Acinetobacter baumannii; not below 60.9 µM in the assay on Staphylococcus aureus 4; 1.43 µM (≈ 4.69 µg/mL) in the assay on Pseudomonas aeruginosa 2; 5.71 µM (≈ 18.7 µg/mL) with Arcyria cinerea; 2.86 µM (≈ 9.37 µg/mL) with Candida glabrata 1. Further, the MIC with Staphylococcus aureus 1 is 2.02 µM (≈ 6.63 µg/mL); with Klebsiella pneumoniae 1 it was 11.4 µM (≈ 37.5 µg/mL); in the assay on Proteus mirabilis, 5.71 µM (≈ 18.7 µg/mL); in assay [12] it was 2.86 µM (≈ 9.37 µg/mL); in the assay with Pseudomonas aeruginosa 1, 5.71 µM (≈ 18.7 µg/mL); in the assay on Candida albicans 5, not below 60.9 µM. The minimum inhibitory concentration (MIC) was not below 60.9 µM in the assay on Klebsiella pneumoniae 5; 1.43 µM (≈ 4.69 µg/mL) in the assay on Klebsiella oxytoca; 11.4 µM (≈ 37.5 µg/mL) with Candida albicans; not below 60.9 µM against Proteus vulgaris; not below 60.9 µM in the assay with Serratia marcescens; 22.8 µM (≈ 75 µg/mL) against Enterococcus faecalis. In addition, the minimal inhibitory concentration (MIC) is 22.8 µM (≈ 75 µg/mL) in the assay on Nocardia asteroides, 2.86 µM (≈ 9.37 µg/mL) in the assay with Enterococcus faecium and not below 60.9 µM against Bacillus cereus.
As for `CSCC[C@H](NC(=O)[C@@H](NC(=O)[C@H](CCCCN)NC(=O)[C@H](Cc1c[nH]c2ccccc12)NC(=O)[C@H](CC(C)C)NC(=O)[C@H](C)N)[C@@H](C)O)C(=O)N[C@@H](CC(C)C)C(=O)N[C@@H](CCCCN)C(=O)N[C@@H](CCCCN)C(=O)N[C@@H](CC(C)C)C(=O)NCC(=O)N[C@H](C(N)=O)[C@@H](C)O` [ALWKTMLKKLGT], the minimum inhibitory concentration (MIC) with Escherichia coli HB101 is not below 54 µM; in assay [13], not below 54.2 µM; in assay [14], not below 54 µM.
For `CC[C@H](C)[C@H](NC(=O)[C@H](CCC(N)=O)NC(=O)[C@H](CCCCN)NC(=O)[C@H](Cc1ccc(O)cc1)NC(=O)[C@H](CC(C)C)NC(=O)[C@H](CCC(N)=O)NC(=O)[C@@H]1CCCN1C(=O)[C@H](CCSC)NC(=O)[C@H](CCCCN)NC(=O)[C@@H](NC(=O)[C@H](CCCN=C(N)N)NC(=O)[C@H](CCCCN)NC(=O)[C@@H](NC(=O)[C@H](CCSC)NC(=O)[C@@H](NC(=O)[C@H](CC(C)C)NC(=O)[C@@H](NC(=O)[C@@H](N)CCCN=C(N)N)[C@@H](C)CC)[C@@H](C)O)[C@@H](C)O)C(C)C)C(=O)N[C@H](C(=O)N[C@H]1CSSC[C@@H](C(=O)O)NC(=O)[C@H]([C@@H](C)O)NC(=O)[C@H](CCCCN)NC(=O)[C@H](Cc2ccccc2)NC(=O)[C@H](CC(C)C)NC(=O)[C@H](CCCN=C(N)N)NC1=O)C(C)C` [RILTMTKRVKMPQLYKQIVCRLFKTC], the MIC in assay [15] was 31.3 µM (≈ 99.9 µg/mL); in assay [16] it was 15.6 µM (≈ 50 µg/mL); in assay [17], 15.6 µM (≈ 50 µg/mL); in assay [18], 31.3 µM (≈ 99.9 µg/mL); against Shigella dysenteriae it was 15.6 µM (≈ 50 µg/mL); in assay [19] it was 3.13 µM (≈ 9.99 µg/mL). The MIC was not below 62.5 µM in [20] and 7.81 µM (≈ 25 µg/mL) in [21].
